# Like-named read-outs stand apart in the source and are kept apart here.
# Columns and labels:
# [1] = system: Citrobacter freundii (CFR) isolates; assay: MIC of compounds alone and combined with antibacterials, broth microdilution (CLSI); format: cell-based; details: for MIC: Citrobacter freundii, read-out: MIC
# Outline: (§1)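 Inoculum 5·10^5 CFU/mL (final), log phase, ca-MHB; 16-20 h, 35° C, ambient air. MIC = lowest conc. with no visible growth; ATB MIC read at each compound level.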
# [2] = system: Enterobacter cloacae (ECL) isolates; assay: as above; format: cell-based; details: for MIC: Enterobacter cloacae
# Outline: as §1
smiles,measurement,setting,value
"C=CC1=C(C(=O)O)N2C(=O)[C@@H](NC(=O)/C(=N\OCC(=O)O)c3csc(N)n3)[C@H]2SC1 [FIX, Cefixime]",MIC ATB in combination,[1],>128 µg/mL
same,MIC ATB in combination,"[1]; CFR UFR10, AF1 @ 4 μg/mL",<=0.25 μg/mL
same,MIC ATB in combination,"[1]; CFR UFR10, AF1 @ 8 μg/mL",<=0.25 μg/mL
same,MIC ATB in combination,"[1]; CFR UFR11, AF1 @ 4 μg/mL",8 µg/mL
same,MIC ATB in combination,"[1]; CFR UFR11, AF1 @ 8 μg/mL",4 µg/mL
same,MIC ATB in combination,"[1]; CFR UFR83, AF1 @ 8 μg/mL",128 µg/mL
same,MIC ATB in combination,"[1]; CFR UFR146, AF1 @ 4 μg/mL",1 µg/mL
same,MIC ATB in combination,"[1]; CFR UFR146, AF1 @ 8 μg/mL",1 µg/mL
same,MIC ATB in combination,"[1]; CFR UFR248, AF1 @ 4 μg/mL",<=0.25 μg/mL
same,MIC ATB in combination,"[1]; CFR UFR248, AF1 @ 8 μg/mL",<=0.25 μg/mL
same,MIC ATB in combination,"[1]; CFR UFR249, AF1 @ 4 μg/mL",<=0.25 μg/mL
same,MIC ATB in combination,"[1]; CFR UFR249, AF1 @ 8 μg/mL",<=0.25 μg/mL
same,MIC ATB in combination,"[1]; CFR UFR250, AF1 @ 4 μg/mL",<=0.25 μg/mL
same,MIC ATB in combination,"[1]; CFR UFR250, AF1 @ 8 μg/mL",<=0.25 μg/mL
same,MIC,"[1]; ATB alone, strain CFR UFR253 (TEM-1, SHV-12, OXA-48)",> 128 µg/mL
same,MIC,"[1]; ATB alone, strain CFR UFR254 (VEB-1b, OXA-48, qnrA)",32 µg/mL
same,MIC,"[1]; ATB combined with CLA @ 4 μg/ml, strain CFR UFR253 (TEM-1, SHV-12, OXA-48)",> 128 µg/mL
same,MIC,"[1]; ATB combined with CLA @ 4 μg/ml, strain CFR UFR254 (VEB-1b, OXA-48, qnrA)",16 µg/mL
same,MIC,"[1]; CFR UFR250, alone",> 128 µg/mL
same,MIC,"[1]; strain CFR UFR10 (OXA-48), ATB alone",> 128 µg/mL
same,MIC,"[1]; strain CFR UFR10 (OXA-48), CLA @ 4 μg/ml+ ATB",32 µg/mL
same,MIC,"[1]; strain CFR UFR11 (TEM-1, OXA-1, OXA-48), ATB alone",32 µg/mL
same,MIC,"[1]; strain CFR UFR11 (TEM-1, OXA-1, OXA-48), CLA @ 4 μg/ml+ ATB",32 µg/mL
same,MIC,"[1]; strain CFR UFR83 (TEM-3, AmpC), ATB alone",> 128 µg/mL
same,MIC,"[1]; strain CFR UFR83 (TEM-3, AmpC), CLA @ 4 μg/ml+ ATB",> 128 µg/mL
same,MIC,"[1]; strain CFR UFR146 (TEM-1, KPC-2), ATB alone",64 µg/mL
same,MIC,"[1]; strain CFR UFR146 (TEM-1, KPC-2), CLA @ 4 μg/ml+ ATB",64 µg/mL
same,MIC,"[1]; strain CFR UFR248 (CTX-M-15), ATB alone",> 128 µg/mL
same,MIC,"[1]; strain CFR UFR248 (CTX-M-15), CLA @ 4 μg/ml+ ATB",4 µg/mL
same,MIC,"[1]; strain CFR UFR249 (TEM-1, CTX-M-15), ATB alone",> 128 µg/mL
same,MIC,"[1]; strain CFR UFR249 (TEM-1, CTX-M-15), CLA @ 4 μg/ml+ ATB",2 µg/mL
same,MIC,"[1]; strain CFR UFR250 (TEM-1, SHV-28, CTX-M-15), ATB alone",> 128 µg/mL
same,MIC,"[1]; strain CFR UFR250 (TEM-1, SHV-28, CTX-M-15), CLA @ 4 μg/ml+ ATB",2 µg/mL
same,MIC ATB in combination,"[1]; strain CFR UFR253, antibacterial combined with AF1 @ 4 μg/mL",32 µg/mL
same,MIC ATB in combination,"[1]; strain CFR UFR253, antibacterial combined with AF1 @ 8 μg/mL",16 µg/mL
same,MIC ATB in combination,"[1]; strain CFR UFR254, antibacterial combined with AF1 @ 4 μg/mL",0.5 µg/mL
same,MIC ATB in combination,"[1]; strain CFR UFR254, antibacterial combined with AF1 @ 8 μg/mL",<=0.25 μg/mL
same,MIC ATB in combination,"[2]; ECL 2185D, AF1 @ 4 μg/mL",>128 µg/mL
same,MIC ATB in combination,"[2]; ECL 2185D, AF1 @ 8 μg/mL",64 µg/mL
same,MIC ATB in combination,"[2]; ECL 190310, AF1 @ 4 μg/mL",64 µg/mL
same,MIC ATB in combination,"[2]; ECL 190310, AF1 @ 8 μg/mL",32 µg/mL
same,MIC ATB in combination,"[2]; ECL 190408, AF1 @ 4 μg/mL",0.5 µg/mL
same,MIC ATB in combination,"[2]; ECL 190408, AF1 @ 8 μg/mL",0.25 µg/mL
same,MIC ATB in combination,"[2]; ECL 200138, AF1 @ 4 μg/mL",64 µg/mL
same,MIC ATB in combination,"[2]; ECL 200138, AF1 @ 8 μg/mL",16 µg/mL
same,MIC ATB in combination,"[2]; ECL 200322, AF1 @ 4 μg/mL",0.5 µg/mL
same,MIC ATB in combination,"[2]; ECL 200322, AF1 @ 8 μg/mL",0.25 µg/mL
same,MIC ATB in combination,"[2]; ECL 260033, AF1 @ 4 μg/mL",>128 µg/mL
same,MIC ATB in combination,"[2]; ECL 260033, AF1 @ 8 μg/mL",2 µg/mL
same,MIC ATB in combination,"[2]; ECL 260253, AF1 @ 4 μg/mL",8 µg/mL
same,MIC ATB in combination,"[2]; ECL 260253, AF1 @ 8 μg/mL",8 µg/mL
same,MIC ATB in combination,"[2]; ECL 260323, AF1 @ 4 μg/mL",64 µg/mL
same,MIC ATB in combination,"[2]; ECL 260323, AF1 @ 8 μg/mL",32 µg/mL
same,MIC ATB in combination,"[2]; ECL 260508, AF1 @ 4 μg/mL",<=0.25 μg/mL
same,MIC ATB in combination,"[2]; ECL 260508, AF1 @ 8 μg/mL",<=0.25 μg/mL
same,MIC ATB in combination,"[2]; ECL NEM146383, AF1 @ 4 μg/mL",32 µg/mL
same,MIC ATB in combination,"[2]; ECL NEM146383, AF1 @ 8 μg/mL",16 µg/mL
same,MIC ATB in combination,"[2]; ECL P99, AF1 @ 4 μg/mL",16 µg/mL
same,MIC ATB in combination,"[2]; ECL P99, AF1 @ 8 μg/mL",1 µg/mL
same,MIC ATB in combination,"[2]; ECL UFR12, AF1 @ 4 μg/mL",<=0.25 μg/mL
same,MIC ATB in combination,"[2]; ECL UFR12, AF1 @ 8 μg/mL",<=0.25 μg/mL
same,MIC ATB in combination,"[2]; ECL UFR13, AF1 @ 4 μg/mL",8 µg/mL
same,MIC ATB in combination,"[2]; ECL UFR13, AF1 @ 8 μg/mL",8 µg/mL
same,MIC ATB in combination,"[2]; ECL UFR14, AF1 @ 4 μg/mL",16 µg/mL
same,MIC ATB in combination,"[2]; ECL UFR14, AF1 @ 8 μg/mL",8 µg/mL
same,MIC ATB in combination,"[2]; ECL UFR60, AF1 @ 4 μg/mL",4 µg/mL
same,MIC ATB in combination,"[2]; ECL UFR60, AF1 @ 8 μg/mL",4 µg/mL
same,MIC ATB in combination,"[2]; ECL UFR70, AF1 @ 4 μg/mL",16 µg/mL
same,MIC ATB in combination,"[2]; ECL UFR70, AF1 @ 8 μg/mL",2 µg/mL
same,MIC ATB in combination,"[2]; ECL UFR84, AF1 @ 4 μg/mL",64 µg/mL
same,MIC ATB in combination,"[2]; ECL UFR84, AF1 @ 8 μg/mL",16 µg/mL
same,MIC ATB in combination,"[2]; ECL UFR85, AF1 @ 4 μg/mL",8 µg/mL
same,MIC ATB in combination,"[2]; ECL UFR85, AF1 @ 8 μg/mL",0.5 µg/mL
same,MIC ATB in combination,"[2]; ECL UFR194, AF1 @ 4 μg/mL",1 µg/mL
same,MIC ATB in combination,"[2]; ECL UFR194, AF1 @ 8 μg/mL",2 µg/mL
same,MIC ATB in combination,"[2]; ECL UFR200, AF1 @ 4 μg/mL",1 µg/mL
same,MIC ATB in combination,"[2]; ECL UFR200, AF1 @ 8 μg/mL",0.5 µg/mL
same,MIC,"[2]; ATB alone, strain ECL UFR197 (TEM-1, CTX-M-15, OXA-1, OXA-48)",> 128 µg/mL
same,MIC,"[2]; ATB alone, strain ECL UFR198 (TEM-1, SHV-12, CTX-M-15, DHA-1, OXA-1, OXA-48)",> 128 µg/mL
same,MIC,"[2]; ATB combined with CLA @ 4 μg/ml, strain ECL UFR197 (TEM-1, CTX-M-15, OXA-1, OXA-48), read-out: MIC",128 µg/mL
same,MIC,"[2]; ATB combined with CLA @ 4 μg/ml, strain ECL UFR198 (TEM-1, SHV-12, CTX-M-15, DHA-1, OXA-1, OXA-48)",> 128 µg/mL
same,MIC,"[2]; strain ECL 2185D (OXA-163), ATB alone",> 128 µg/mL
same,MIC,"[2]; strain ECL 2185D (OXA-163), CLA @ 4 μg/ml+ ATB",> 128 µg/mL
same,MIC,"[2]; strain ECL 190310 (AmpC), ATB alone",> 128 µg/mL
same,MIC,"[2]; strain ECL 190310 (AmpC), CLA @ 4 μg/ml+ ATB",> 128 µg/mL
same,MIC,"[2]; strain ECL 190408 (TEM-1, CTX-M-15, OXA-1), ATB alone",512 µg/mL
same,MIC,"[2]; strain ECL 190408 (TEM-1, CTX-M-15, OXA-1), CLA @ 4 μg/ml+ ATB, read-out: MIC",128 µg/mL
same,MIC,"[2]; strain ECL 200138 (AmpC), ATB alone",> 128 µg/mL
same,MIC,"[2]; strain ECL 200138 (AmpC), CLA @ 4 μg/ml+ ATB",> 128 µg/mL

# From patent publication US20200017496A1 (priority 2017, published 2020)
